According to BindingDB's records for doi:10.1016/0896-6273(94)90055-8 (Massachusetts General Hospital, 1994):

Columns and labels:
[1] = target: Melatonin receptor type 1A (Ovis aries, UniProt P48040)
[2] = target: T1, Melatonin receptor type 1B (Homo sapiens, UniProt P49286)
T1 sequence (P49286 whole entry): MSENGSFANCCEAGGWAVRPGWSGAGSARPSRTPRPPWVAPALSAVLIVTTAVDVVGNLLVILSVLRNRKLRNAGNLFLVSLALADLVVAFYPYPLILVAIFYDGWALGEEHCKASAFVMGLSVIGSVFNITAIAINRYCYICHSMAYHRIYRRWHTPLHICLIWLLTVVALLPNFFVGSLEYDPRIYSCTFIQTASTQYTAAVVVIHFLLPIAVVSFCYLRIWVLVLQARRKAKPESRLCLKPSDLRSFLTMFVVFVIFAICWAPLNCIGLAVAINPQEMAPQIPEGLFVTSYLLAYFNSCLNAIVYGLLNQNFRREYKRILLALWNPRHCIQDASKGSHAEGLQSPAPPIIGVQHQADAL

Chain of Melatonin receptor type 1A (P48040 whole entry): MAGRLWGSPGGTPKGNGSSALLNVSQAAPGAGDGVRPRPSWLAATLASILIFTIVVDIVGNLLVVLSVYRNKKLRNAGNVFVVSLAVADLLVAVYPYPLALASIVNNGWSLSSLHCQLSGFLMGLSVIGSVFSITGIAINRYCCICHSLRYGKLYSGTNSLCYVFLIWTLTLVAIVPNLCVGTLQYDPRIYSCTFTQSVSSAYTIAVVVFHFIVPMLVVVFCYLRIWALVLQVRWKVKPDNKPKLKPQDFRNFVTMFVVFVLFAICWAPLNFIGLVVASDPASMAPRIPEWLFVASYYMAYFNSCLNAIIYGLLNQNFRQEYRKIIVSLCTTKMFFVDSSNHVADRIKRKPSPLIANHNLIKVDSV

SMILES	Ki [1] [nM]	Ki [2] [nM]
COc1ccc2[nH]c(I)c(CCNC(C)=O)c2c1	0.03	
COc1cc2c(CCNC(C)=O)c[nH]c2cc1Cl	0.25	
COc1cc2c(CCNC(C)=O)c[nH]c2cc1O [melatonin, 6-Hydroxy]		2
CC(=O)n1cc(CCN)c2cc(O)ccc21 [NSC_260803]	140	170
NCCc1c[nH]c2ccc(O)cc12 [[3H]-5-HT]	> 10000	
